Source: US11359180B2, “Method for producing myocardial cells using synthetic peptide” (Toagosei Co., Ltd., priority 2015, dated 2022)

B1: activin A: peptide having approximately 140 amino acid residues (R&D Systems, Cat. No. 338-AC-D50), used in the hepatocyte differentiation-inducing method (protein, UniProt P08476 311-426, looked up)
Inhibin beta A chain: GLECDGKVNICCKKQFFVSFKDIGWNDWIIAPSGYHANYCEGECPSHIAGTSGSSLSFHSTVINHYRMRGHSPFANLKSCCVPTKLRPMSMLYYDDGQNIIKKDIQNMIVEECGCS
modifications: Inhibin beta A chain
notes: peptide having approximately 140 amino acid residues (R&D Systems, Cat. No. 338-AC-D50), used in the hepatocyte differentiation-inducing method

Experiments:
[1] = system: iPS cells of human origin (clone 201B7); assay: Induction of myocardial cell differentiation: microscopic observation of beating cells; type: cell-based
Source text: Pluripotent stem cells were induced to myocardial cells (production of myocardial cells) using the myocardial cell differentiation-inducing synthetic peptide obtained in Example 1 (sample 1). Specifically, pluripotent stem cells were induced to myocardial cells (production of myocardial cells) by using the myocardial cell differentiation-inducing synthetic peptide obtained in Example 1 (sample 1) in place of activin A in the method for inducing the differentiation of pluripotent stem cells into hepatocytes. The method described in Non Patent Literature 3 was adopted for the method for inducing the differentiation of pluripotent stem cells into hepatocytes. iPS cells of human origin (clone designation: 201B7, source: Takahashi K et al., Cell, 131, 861-872 (2007)) were used for the test cells. These iPS cells were supplied by the Center for iPS Cell Research and Application of Kyoto University.
The iPS cells, which were the test cells, were seeded to 12-well plates coated with an extracellular matrix (Geltrex (registered trademark) in the present case). Using mTeSR1 (STEMCELL Technologies Inc.) for the culture medium, they were cultured (precultured) in a CO2 incubator under conditions of 37° C. and 5% CO2 until an appropriate cell density (here, a confluence of about at least 60% and not more than 70%) had been reached. Medium exchange was performed each day during this preculture.
The sample 1 obtained in Example 1 was then added to the culture medium and cultivation was carried out (main culture). Thus, the pluripotent stem cells were induced to myocardial cells (production of myocardial cells) by using the myocardial cell differentiation-inducing synthetic peptide obtained in Example 1 (sample 1) in place of the activin A in the method for inducing the differentiation of pluripotent stem cells into hepatocytes that is given in Non Patent Literature 3. The following were set up in the present example: a test section (referred to below as the activin A addition section) that used the same method as the method given in Non Patent Literature 3 for inducing the differentiation of pluripotent stem cells to hepatocytes using activin A; a test section (referred to below as the sample 1 addition section) that used the myocardial cell differentiation-inducing synthetic peptide of sample 1 in place of the activin A in the activin A addition section; and a control section to which neither the activin A nor the myocardial cell differentiation-inducing synthetic peptide was added. The specifics are given below. The culture conditions in this main culture are given schematically in FIG. 1.
(§1) First, the culture medium was exchanged to base medium 1 in the activin A addition section, the sample 1 addition section, and the control section. In the activin A addition section, activin A (R&D Systems, Inc., Cat. No. 338-AC-D50) was added to the culture vessel (i.e., to the base medium 1) in a quantity that provided an activin A concentration in the culture medium of 100 ng/mL. […]
as §1, with “After this cultivation for 2 days (i.e., the 2nd day after the start of the main culture), the” for “First, the”, “medium 2” for “medium 1”, “A” for “A (R&D Systems, Inc., Cat. No. 338-AC-D50)”, “medium 2)” for “medium 1)”

[2] = system: iPS cells of human origin (clone 201B7); assay: Expression of myocardial cell marker genes by fluorescent cytoimmunostaining; type: cell-based; details: sample 1 addition section, 16th day after start of main culture
Procedure: To check the state of expression of myocardial cell marker genes, cytoimmunostaining (fluorescent immunostaining) of proteins that are the gene products of myocardial marker genes was carried out on the cells in each of the test sections at the 16th day after the start of main culture. The expression of the following as myocardial marker genes was checked: myosin heavy chain (MHC), cardiac Troponin T (cTnT), tropomyosin (TM), and connexin 43 (Cx43).
First, the cells in each test section were subjected to a fixing treatment, a permeabilization treatment, and a blocking treatment. This fixing treatment, permeabilization treatment, and blocking treatment were carried out using a commercial kit (Image-iT Fixation/Permeabilization Kit, Life Technologies Corporation) in accordance with the manual provided with the kit.
Specifically, the culture medium was first removed from the culture vessel (12-well plate) for the cells in each test section on the 16th day after the start of the main culture (16th day after the addition of the myocardial cell differentiation-inducing synthetic peptide). The fixing treatment was performed by adding the fixative solution (Fixative Solution, contained 4 volume % formaldehyde in PBS (pH=7.3)) from the kit at 0.4 mL/well and holding at quiescence for 15 minutes at room temperature. This was followed by washing 3 times using the wash buffer (Wash Buffer, PBS, pH=7.4) from the kit at 0.5 mL/well.
A permeabilization treatment was then performed by adding the permeabilization solution (Permeabilization solution, contained 0.5 volume % Triton (registered trademark) X-100) from the kit at 0.5 mL/well and holding at quiescence for 15 minutes at room temperature. This was followed by washing three times with the wash buffer ([…]) from the kit.
After the cells in each well had been washed with PBS-T (PBS containing 0.25 volume % Triton (registered trademark) X-100), a blocking treatment was performed by adding the blocking solution (Blocking Solution, contained 3 weight/volume % (w/v %) BSA fraction V in DPBS (Dulbecco's PBS) (pH=7.4)) from the kit to each well and standing at quiescence overnight (about 18 hours) at 4° C.
After this blocking treatment, the primary antibody dilutions were added to each well followed by holding at quiescence for 2 hours at room temperature; the primary antibody dilutions were prepared by the dilution of the specified primary antibodies to a suitable antibody concentration using the blocking solution used in the blocking treatment.
The following primary antibodies were used as these primary antibodies: anti-myosin heavy chain antibody, anti-cardiac Troponin T antibody, anti-tropomyosin antibody, and anti-connexin 43 antibody. […]

| Molecule | number of beating cells present (abundance ratio) compared to 9th day ([1]; sample 1 addition section, 8 μM, 10th day after start of main culture) | number of beating cells ([1]; sample 1 addition section, 8 μM, 17th day after start of main culture, 12-well plate) | number of beating cells (abundance ratio), average ([1]; sample 1 addition section, repeated tests, 17th day after start of main culture) | probability that at least 1 beating cell was present per 1 well ([1]; sample 1 addition section, tests independently repeated a plurality of times, 12-well plate) | expression of cardiac Troponin T in comparison to control section ([2]; FIG. 2) | expression of myosin heavy chain in comparison to control section ([2]; FIG. 2) | expression of connexin 43 in comparison to control section ([2]; FIG. 3) | expression of tropomyosin in comparison to control section ([2]; FIG. 3) | presence of beating cells ([1]; activin A addition section, 100 ng/mL, daily observation during main culture) |
| --- | --- | --- | --- | --- | --- | --- | --- | --- | --- |
| LLLLLLVGLTAPAGKKRTLRKNDRKKR [sample 1] | had increased | approximately 38 beating cells/well | about 40 per 1 well of the 12-well plate | at least 95% | substantially increased | substantially increased | substantially increased | substantially increased |  |
| B1 |  |  |  |  |  |  |  |  | could not be confirmed |
